In patent US20240139210A1, “TREATMENT OF NF-KB-MEDIATED DISEASE” (ReveraGen BioPharma, Inc., priority 2020, published 2024):
Where two headings read alike, the source gives them in different places.

Legend:
boys with DMD [1] = conditions: cited from earlier work; for LS Mean change in height percentiles for age: 12-month treatment period, DMD
participants with DMD = conditions: CINRG DNHS, deflazacort n = 94, prednisone n = 80; cited from earlier work
boys with DMD [2] = assay: CINRG 12-month prednisone clinical trial, external comparator; assay type: in vivo, human; conditions: vamorolone 18-month treatment versus prednisone trial 12-month treatment
Experimental: As with the CINRG DNHS comparators, group-matching criteria were prespecified in the iSAP, and 2 independent statisticians carried out the participant matching. […] There was no corresponding 12-month assessment in vamorolone-treated participants. (Assessments of vamorolone-treated trial participants were 0, 3, 6, and 18 months).
Participants in the corticosteroid-treated CINRG DNHS group were treated for at least 18 months, but the total duration, dose, and regimens varied.

[3] = test system: ambulant boys aged 4 to <7 years with DMD; assay: VBP15-004 growth (height Z scores); assay type: in vivo, human; conditions: prednisone 0.75 mg/kg/day
From the text: (§1) The second period of 24 weeks, where all participants receive vamorolone treatment on either of the two dose levels, will continue to capture additional longer-term safety and tolerability data.

[4] = test system: ambulant boys aged 4 to <7 years with DMD; assay: VBP15-004 bone turnover biomarkers; assay type: in vivo, human; conditions: Prednisone 0.75 mg (N = 24)
[5] = test system: ambulant boys aged 4 to <7 years with DMD; assay: VBP15-004 adverse events; design: species or system human; conditions: male, human, in vivo, 24 weeks
From the text: as §1
The study completion rate at 24 weeks was 94% (or 114 of 121 participants).
Pre-specified AESIs typically for corticosteroids were higher in prednisone-treated subjects than vamorolone-treated subjects after 24 weeks of treatment (Table 10).

[6] = 0.9 mg/kg/day deflazacort (n = 68), 0.75 mg/kg/day prednisone (n = 63)

Row | SMILES | Incidence of physician-reported Cushingoid (boys with DMD [1]; [6]) [%] | Incidence of physician-reported behavior change (boys with DMD [1]; [6]) [%] | Incidence of physician-reported hypertrichosis/hirsutism (boys with DMD [1]; [6]) [%] | Incidence of physician-reported weight gain (boys with DMD [1]; [6]) [%] | LS Mean change in height percentiles for age (boys with DMD [1]) [percentile] | LS Mean change in height percentiles for age (boys with DMD [1]; listed as deflazacort) [percentile] | Incidence of physician-reported Cushingoid (participants with DMD) [%] | Incidence of physician-reported behavior change (participants with DMD) [%] | Incidence of physician-reported weight gain (participants with DMD) [%] | Mean BMI z-score, LS mean difference (SE), ANCOVA (boys with DMD [2]) | Mean height percentile for age, LS mean difference (SE), ANCOVA (boys with DMD [2]) | change in height Z scores from baseline to Week 24 [3] | Osteocalcin, mean (SEM) change at Week 24 [4] | Procollagen 1 N-Terminal Propeptide (P1NP), mean (SEM) change at Week 24 [4] | Type I Collagen C-Telopeptides (CTX), mean (SEM) change at Week 24 [4] | clinically relevant psychiatric events, subjects [5] [%] | incidence of behavior problems [5] [%] | moderate/severe behavior problems, subjects [5] [%]
1 | CC(=O)OCC(=O)[C@@]12N=C(C)O[C@@H]1C[C@H]1[C@@H]3CCC4=CC(=O)C=C[C@]4(C)[C@H]3[C@@H](O)C[C@@]12C [Deflazacort, deflazacort] | 60.3 | 9 | 35 | 27.9 | −11.4 | −11.43 | 72 | 33 | 63 |  |  |  |  |  |  |  |  | 
2 | C[C@]12C=CC(=O)C=C1CC[C@@H]1[C@@H]2C(=O)C[C@@]2(C)[C@H]1CC[C@]2(O)C(=O)CO [Prednisone, prednisone] |  |  |  |  |  |  |  |  |  | 0.066 (0.193) | 10.37 (3.86) percentile | growth deceleration | −15.2 (2.7) ng/ml | −134 (22) ng/mL | −300 (43) pg/mL | 19.4 | 32.3 | 22.6
